# From publication PMC6478789, “A chemical toolbox for the study of bromodomains and epigenetic signaling” (Nature Communications, 2019)
# Read-outs that look alike come from different tables or passages of the source.
# What was measured:
# CBP = target: T1, CBP (Homo sapiens, UniProt Q92793); conditions: ITC data, cited from earlier work
# T1 construct: Recombinant protein domains (bromodomain or kinases) at a concentration of 2 μM
# BRPF2 = conditions: ITC data, cited from earlier work
# ATAD2A = target: T2, ATAD2A (Homo sapiens, UniProt Q6PL18); parameters: purchased; method as in ref 20 (suppl.); conditions: BROMOscan; ref 20 (suppl.); cited from earlier work
# T2 sequence (Q6PL18 980-1092 limits assumed): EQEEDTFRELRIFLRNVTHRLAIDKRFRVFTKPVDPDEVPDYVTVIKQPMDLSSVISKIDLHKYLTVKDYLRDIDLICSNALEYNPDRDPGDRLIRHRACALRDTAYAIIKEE
# three TNBC lines = test: Combinatorial screen of BRD inhibitors with or without BAY-876 (confluency); format: cell-based, human
# Procedure: Fig. 6 BRD inhibitors leverage metabolic adaptations induced by glucose transporter I (GLUT1) inhibition in TNBC. a BRD inhibitor screening across ten TNBC cell lines. Cells were treated with indicated BRD inhibitors at 3 μM for 7 days. Confluency was measured using an IncuCyte ZOOM live cell imaging device. Data shown are mean ± s.d. of n = 4 independent cell culture grown and treated cells. A two-sided Student’s t test was used to derive the p-values. b SLC2A1 gene expression in the The Cancer Genome Atlas (TCGA) breast datasets. The cohorts were divided into TNBCs (red) and non-TNBCs (blue) according to PAM50 classification. Gene expression is reported as median-centered expression log2 values. The number of patients (n) per group is indicated. P-values were determined using a Wilcoxon's rank-sum test. c Glucose uptake in MDA-MB-436 cells in response to BAY-876 treatment relative to vehicle. MDA-MB-436 cells were treated with dimethyl sulfoxide (DMSO) or 3 µM BAY-876 for 5 days. Graph indicates mean, error bars denote s.d. from three independent assays and p-value was computed using the Benjamini-Hochberg t test; ***p < 0.001. d Effects of BAY-876 treatment on the intracellular acetyl-CoA level. Graph indicates mean, error bars denote s.d. from three independent assays and p-value was computed using the Benjamini-Hochberg t test; ***p < 0.001. e Effects of BAY-876 treatment on intracellular NAD^+/NADH level. Graph indicates the mean, error bars denote s.d. from three independent assays and p-value computed using the Benjamini-Hochberg t test; **p < 0.01. f Immunoblot analysis of H3 and H4 acetylation in MDA-MB-436 cells before and after BAY-876 treatment. P-value computed using the Benjamini-Hochberg t test; ***p < 0.001. g Cell growth effects of BAY-876 treatment on three representative cell lines. n.s. not significant. h Combinatorial screening of BRD inhibitors with or without 3 μM BAY-876 across ten TNBC cell lines. Cell confluency was obtained from the endpoint Incucyte scanning. (Left) Heatmap of the combinatorial screening results; (Right) Cell confluency after treatment with three potential BRDi candidates at 3 μM in the presence or absence of 3 μM BAY-876 in three representative cell lines. Graph indicates mean, error bars denote s.d. from three independent assays and p-values were computed using the Benjamini-Hochberg t test; **p < 0.01; ***p < 0.001. Raw data images are available in Supplementary Fig. 4
# TNBC cell lines were seeded in sterile, transparent 384-well plates at 500 cells per well in 50 µl media. Chemical probes were delivered in dimethyl sulfoxide (DMSO). Cell confluency at 7 days was evaluated using an Incucyte ZOOM live cell imaging device (Essen Bioscence) and analyzed with the Incucyte ZOOM (2016A) software based on phase contrast image.
# MDA-MB-436 cells = test: Immunoblot of H3 and H4 acetylation; format: cell-based, human; conditions: BAY-876 treatment
# Procedure: Total cell lysates were resolved in 4−12% Bis-Tris protein gels (Invitrogen) with MOPS (3-(N-morpholino)propanesulfonic acid) buffer (Invitrogen) and transferred for 1.5 h (80 V) onto polyvinylidene fluoride membrane (Millipore) in Tris-glycine transfer buffer containing 20% MeOH and 0.05% sodium dodecyl sulfate. Blots were blocked for 1 h in blocking buffer (5% milk in 0.1% Tween-20 PBS) and incubated with primary antibodies: anti-ac-H3 (1:2000, ab47915); anti-ac-H4 (1:2000; ab177790); anti-H3 (1:2000; ab1791); anti-H4 (1:2000; ab10158); anti-H3K14ac (1:4000; ab52946); anit-BRPF1 (1:1000; Thermo Fisher); anti-BRPF2 (1:2000; ab71877) in blocking buffer overnight at 4 °C. After five washes with 0.1% Tween-20 PBS the blots were incubated with goat-anti-rabbit (IR800 conjugated, LiCor no. 926-32211) and donkey anti-mouse (IR 680, LiCor no. 926-68072) antibodies (1:5000) in Odyssey blocking buffer (LiCor) for 1 h at room temperature and washed five times with 0.1% Tween-20 PBS. The signal was read on an Odyssey scanner (LiCor) at 800 and 700 nm.
# ATAD2B = target: T3, ATAD2B (Homo sapiens, UniProt Q9ULI0); parameters: purchased; method as in ref 18 (suppl.); conditions: ITC; ref 18 (suppl.); cited from earlier work
# T3 sequence (Q9ULI0 951-1066 limits assumed): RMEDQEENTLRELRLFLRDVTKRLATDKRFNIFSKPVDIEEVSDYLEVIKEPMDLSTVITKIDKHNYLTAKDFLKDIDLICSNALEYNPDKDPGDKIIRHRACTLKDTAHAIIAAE
# T1 sequence (Q92793 1085-1192 limits assumed): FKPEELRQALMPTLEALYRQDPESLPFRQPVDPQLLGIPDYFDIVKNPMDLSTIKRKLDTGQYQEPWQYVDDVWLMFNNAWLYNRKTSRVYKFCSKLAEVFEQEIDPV
smiles,measurement,setting,value
Cc1cc2c(cc1N1C(=O)c3cccc4c(CCCO)ccc(c34)C1=O)n(C)c(=O)n2C [BAY-299],Kd,"CBP; ref 13 (suppl.), read-out: KD (nM), off target CBP",1390 nM
same,Kd,BRPF2; ref 13 (suppl.),44 nM
COc1cc(Cl)c(C(=O)N[C@@H](CN[C@H]2CC[C@@H](N)CC2)Cc2ccc(C#N)cc2)cc1-c1ccc(CN[C@H](C)c2ccc(C)cc2)o1 [BAY-850],Kd,ATAD2A,120 nM
CCC(=O)N1CCOc2c(cc(-c3ccc(OC)c(OC)c3)cc2OCC2CCCN(C)C2)C1 (stereo not shown) [I-CBP112],Kd,"CBP; ref 9 (suppl.), read-out: KD (nM), CBP",151 nM
COc1cc2c(cc1NS(=O)(=O)c1ccc(Br)cc1C)n(C)c(=O)n2C [OF-1],combination effect with BAY-876 across the three cell lines,three TNBC lines; 3 μM probe + 3 μM BAY-876,strong synergistic effect across all three cell lines
same,viability in combination with BAY-876,three TNBC lines; 3 μM probe + 3 μM BAY-876,significant decrease in viability
same,Kd,BRPF2; ref 11 (suppl.),505 nM
Cc1c(NC(=O)c2cc(C(N)=O)nc3cc(F)ccc23)c(C(F)(F)F)nn1Cc1ccc(C#N)cc1 [BAY-876],"cell growth, treatment alone",three TNBC lines; 3 μM alone,no effect
same,global levels of acetylated histone H3 (ac-H3),MDA-MB-436 cells,reduction
CO[C@H]1CNC[C@@H](OCC2CCC(F)(F)CC2)[C@@H]1Nc1ncc(-c2cncc(C)c2)c2cc(C)c(=O)[nH]c12 [GSK8814],Kd,ATAD2B,10 nM
